This passage reports EC50 results from patent US10689367B2, “Triazole pyridyl compounds as agonists of the APJ receptor” (AMGEN INC., priority 2016, dated 2020).

The assay deals with human APJ receptor (Homo sapiens (Human), UniProt P35414). Kind of assay: [35S]GTPγS binding assay on membranes from CHO cells stably expressing human APJ receptor. It is filed as biochemical. The conditions noted are these: membranes of CHO cells stably expressing human APJ receptor, read-out: Activity hAPJ SPA EC50 IP. Here is the method: The human APJ receptor was cloned by polymerase chain reaction and the gene encoding the receptor was subcloned in pFLAG-CMV™-3 expression vector (Sigma, Saint Louis, Mo. USA) in-house at Amgen. A GTPγS binding assay was performed on membranes prepared from CHO cells stably expressing human APJ receptor. The optimum experimental conditions for the concentrations of GDP, MgCl2, and NaCl in the assay buffer were initially determined. […] Incubation was at RT for 90 min and the microplate was read using a ViewLux™ ultra HTS Microplate Imager (PerkinElmer, Inc.). All the results presented are means of several independent experiments and analyzed by non-linear regression methods using the commercially available program Prism (GraphPad, San Diego, Calif.) providing the EC50 values detailed in Table 27.
human APJ receptor, sequence (P35414 whole entry): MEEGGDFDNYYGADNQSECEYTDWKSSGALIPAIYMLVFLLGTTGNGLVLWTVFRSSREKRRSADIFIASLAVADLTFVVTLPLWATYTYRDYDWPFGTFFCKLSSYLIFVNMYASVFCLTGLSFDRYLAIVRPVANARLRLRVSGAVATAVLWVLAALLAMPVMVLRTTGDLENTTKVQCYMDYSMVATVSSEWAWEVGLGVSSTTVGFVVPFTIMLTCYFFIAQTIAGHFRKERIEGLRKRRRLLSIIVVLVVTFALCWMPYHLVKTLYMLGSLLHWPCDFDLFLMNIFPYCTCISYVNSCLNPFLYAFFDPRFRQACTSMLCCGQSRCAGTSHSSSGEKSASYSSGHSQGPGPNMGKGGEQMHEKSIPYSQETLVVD
Take `COc1cc(Cn2c(NS(=O)(=O)[C@@H](C)[C@H](C)c3ncc(Cl)cn3)nnc2-c2cccc(OC)n2)on1` [Example 198.0, (2S,3R)-3-(5-chloro-2-pyrimidinyl)-N-(4-((3-methoxy-1,2-oxazol-5-yl)methyl)-5-(6-methoxy-2-pyridinyl)-4H-1,2,4-triazol-3-yl)-2-butanesulfonamide]: the EC50 was determined as 24 nM. Turning to `CO[C@H](c1ncc(Cl)cn1)[C@H](C)S(=O)(=O)Nc1nnc(-c2ccccn2)n1C(C)C` [Example 136.0, (1R,2S)-1-(5-chloro-2-pyrimidinyl)-1-methoxy-N-(4-(2-propanyl)-5-(2-pyridinyl)-4H-1,2,4-triazol-3-yl)-2-propanesulfonamide], the EC50 is 57 nM. For `CCc1noc(C)c1Cn1c(NS(=O)(=O)[C@@H](C)[C@@H](OC(C)C)c2ncc(C)cn2)nnc1-c1cccc(OC)n1` [Example 194.0, (1S,2S)-N-(4-((3-ethyl-5-methyl-1,2-oxazol-4-yl)methyl)-5-(6-methoxy-2-pyridinyl)-4H-1,2,4-triazol-3-yl)-1-(5-methyl-2-pyrimidinyl)-1-(2-propanyloxy)-2-propanesulfonamide], the concentration for a half-maximal effect (EC50) was determined as 56 nM.

As for `CC[C@H]([C@@H]1CCCCO1)n1c(NS(=O)(=O)[C@@H](C)[C@H](OC)c2ncc(Cl)cn2)nnc1-c1cccc(OC)n1` (single isomer, unassigned) [Example 325.0], the 50% effective concentration (EC50) amounted to 0.33 nM.

In the case of `CC[C@@H](c1c(C)noc1C)n1c(NS(=O)(=O)[C@@H](C)[C@H](OC)c2cnc(C)cn2)nnc1-c1cccc(OC)n1` (single isomer, unassigned) [Example 223.0, (1R,2S)-N-(4-((1R)-1-(3,5-dimethyl-1,2-oxazol-4-yl)propyl)-5-(6-methoxy-2-pyridinyl)-4H-1,2,4-triazol-3-yl)-1-methoxy-1-(5-methyl-2-pyrazinyl)-2-propanesulfonamide or (1R,2S)-N-(4-((1S)-1-(3,5-dimethyl-1,2-oxazol-4-yl)propyl)-5-(6-methoxy-2-pyridinyl)-4H-1,2,4-triazol-3-yl)-1-methoxy-1-(5-methyl-2-pyrazinyl)-2-propanesulfonamide], the concentration giving a half-maximal response (EC50) was 32 nM.

For `COc1cccc(-c2nnc(NS(=O)(=O)[C@@H](C)[C@@H](OC(C)C)c3ncc(Cl)cn3)n2C(C)C)n1` [Example 177.0, (1S,2S)-1-(5-chloro-2-pyrimidinyl)-N-(5-(6-methoxy-2-pyridinyl)-4-(2-propanyl)-4H-1,2,4-triazol-3-yl)-1-(2-propanyloxy)-2-propanesulfonamide], the EC50 came to 8.9 nM. To `COCC(COC)n1c(NS(=O)(=O)[C@@H](C)[C@@H](OC(C)C)c2ncc(Cl)cn2)nnc1-c1cncc(C)c1` [Example 13.0, (1S,2S)-1-(5-chloro-2-pyrimidinyl)-N-(4-(1,3-dimethoxy-2-propanyl)-5-(5-methyl-3-pyridinyl)-4H-1,2,4-triazol-3-yl)-1-(2-propanyloxy)-2-propanesulfonamide] belongs 80 nM; to `COCC(COC)n1c(NS(=O)(=O)[C@@H](C)[C@H](C)c2cnc(C)cn2)nnc1-c1cccc(OC)n1` [Example 102.0], 20 nM; to `COc1cccc(-c2nnc(NS(=O)(=O)[C@@H](C)[C@@H](OC(C)C)c3ncc(C)cn3)n2C[C@H]2CCCCO2)n1` (single isomer, unassigned) [Example 301.0, (1S,2S)-1-isopropoxy-N-(5-(6-methoxypyridin-2-yl)-4-(((R)-tetrahydro-2H-pyran-2-yl)methyl)-4H-1,2,4-triazol-3-yl)-1-(5-methylpyrimidin-2-yl)propane-2-sulfonamide or (1S,2S)-1-isopropoxy-N-(5-(6-methoxypyridin-2-yl)-4-(((S)-tetrahydro-2H-pyran-2-yl)methyl)-4H-1,2,4-triazol-3-yl)-1-(5-methylpyrimidin-2-yl)propane-2-sulfonamide], 4.4 nM.
